According to ChEMBL document CHEMBL3627608, “Crystal structures of human RIP2 kinase catalytic domain complexed with ATP-competitive inhibitors: Foundations for understanding inhibitor selectivity” (Bioorg Med Chem, 2015):

What was measured:
Homo sapiens = organism: Homo sapiens; assay: Inhibition of PKCbeta2 (unknown origin) at 10 uM after 120 mins P33 radiolabeled kinase activity assay
[1] = target: Serine/threonine-protein kinase 38-like (Homo sapiens) (UniProt Q9Y2H1); assay: Inhibition of STK38L (unknown origin) at 10 uM after 120 mins P33 radiolabeled kinase activity assay
[2] = target: Protein-tyrosine kinase 6 (Homo sapiens) (UniProt Q13882); assay: Inhibition of BRK (unknown origin) at 10 uM after 120 mins P33 radiolabeled kinase activity assay
[3] = target: T1, Tyrosine-protein kinase ITK/TSK (Homo sapiens) (UniProt Q08881); assay: Inhibition of ITK (unknown origin) at 10 uM after 120 mins P33 radiolabeled kinase activity assay
T1 sequence (whole entry): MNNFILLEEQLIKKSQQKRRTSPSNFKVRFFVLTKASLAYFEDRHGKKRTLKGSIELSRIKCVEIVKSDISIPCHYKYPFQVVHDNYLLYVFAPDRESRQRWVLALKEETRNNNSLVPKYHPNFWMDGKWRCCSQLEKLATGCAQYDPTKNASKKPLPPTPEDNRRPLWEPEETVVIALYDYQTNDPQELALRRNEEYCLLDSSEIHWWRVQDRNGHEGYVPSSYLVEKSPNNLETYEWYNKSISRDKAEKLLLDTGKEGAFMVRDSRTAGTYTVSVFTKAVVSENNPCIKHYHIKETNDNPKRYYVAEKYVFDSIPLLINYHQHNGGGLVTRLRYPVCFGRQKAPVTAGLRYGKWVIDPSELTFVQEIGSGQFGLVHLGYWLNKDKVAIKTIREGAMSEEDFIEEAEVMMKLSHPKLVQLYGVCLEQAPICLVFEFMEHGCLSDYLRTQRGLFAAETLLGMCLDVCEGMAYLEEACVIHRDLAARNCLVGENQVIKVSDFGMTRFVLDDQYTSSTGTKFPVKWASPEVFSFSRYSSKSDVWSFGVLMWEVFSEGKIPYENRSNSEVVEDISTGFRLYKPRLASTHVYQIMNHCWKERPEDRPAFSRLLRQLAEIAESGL

[4] = target: Lymphokine-activated killer T-cell-originated protein kinase (Homo sapiens) (UniProt Q96KB5); assay: Inhibition of PBK (unknown origin) at 10 uM after 120 mins P33 radiolabeled kinase activity assay
[5] = target: Fibroblast growth factor receptor 4 (Homo sapiens) (UniProt P22455); assay: Inhibition of FGFR4 (unknown origin) at 10 uM after 120 mins P33 radiolabeled kinase activity assay
[6] = target: Casein kinase I isoform gamma-1 (Homo sapiens) (UniProt Q9HCP0); assay: Inhibition of CK1gamma1 (unknown origin) at 10 uM after 120 mins P33 radiolabeled kinase activity assay
[7] = target: T2, Homeodomain-interacting protein kinase 4 (Homo sapiens) (UniProt Q8NE63); assay: Inhibition of HIPK4 (unknown origin) at 10 uM after 120 mins P33 radiolabeled kinase activity assay
T2 sequence (whole entry): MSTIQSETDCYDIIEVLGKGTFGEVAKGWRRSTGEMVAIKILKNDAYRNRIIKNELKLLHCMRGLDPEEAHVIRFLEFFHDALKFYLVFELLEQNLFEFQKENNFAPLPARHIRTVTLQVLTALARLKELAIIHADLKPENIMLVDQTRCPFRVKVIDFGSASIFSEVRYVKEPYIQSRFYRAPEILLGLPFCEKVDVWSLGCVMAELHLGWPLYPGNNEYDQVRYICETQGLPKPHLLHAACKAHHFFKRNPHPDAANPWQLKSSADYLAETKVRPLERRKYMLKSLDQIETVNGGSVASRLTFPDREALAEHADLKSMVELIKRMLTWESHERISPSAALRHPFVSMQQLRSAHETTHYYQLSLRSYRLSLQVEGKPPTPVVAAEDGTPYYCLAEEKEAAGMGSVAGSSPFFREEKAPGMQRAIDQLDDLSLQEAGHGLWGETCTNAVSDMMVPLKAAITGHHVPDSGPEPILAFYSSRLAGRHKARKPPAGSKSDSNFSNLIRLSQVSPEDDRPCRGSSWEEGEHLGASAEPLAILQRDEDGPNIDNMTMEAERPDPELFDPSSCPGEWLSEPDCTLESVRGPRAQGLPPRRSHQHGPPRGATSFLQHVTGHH

[8] = target: Tyrosine-protein kinase Yes (Homo sapiens) (UniProt P07947); assay: Inhibition of YES (unknown origin) at 10 uM after 120 mins P33 radiolabeled kinase activity assay
[9] = target: Fibroblast growth factor receptor 3 (Homo sapiens) (UniProt P22607); assay: Inhibition of FGFR3 (unknown origin) at 10 uM after 120 mins P33 radiolabeled kinase activity assay
[10] = target: cAMP-dependent protein kinase (PKA) (Homo sapiens) (UniProt P22694+P17612+P22612); assay: Inhibition of PKA (unknown origin) at 10 uM after 120 mins P33 radiolabeled kinase activity assay; type: protein assay
[11] = target: Calcium/calmodulin-dependent protein kinase type 1G (Homo sapiens) (UniProt Q96NX5); assay: Inhibition of CAMK1gamma (unknown origin) at 10 uM after 120 mins P33 radiolabeled kinase activity assay
[12] = target: Serine/threonine-protein kinase N1 (Homo sapiens) (UniProt Q16512); assay: Inhibition of PKN1 (unknown origin) at 10 uM after 120 mins P33 radiolabeled kinase activity assay
[13] = target: Ephrin type-A receptor 2 (Homo sapiens) (UniProt P29317); assay: Inhibition of EPHA2 (unknown origin) at 10 uM after 120 mins P33 radiolabeled kinase activity assay
[14] = target: T3, Dual specificity tyrosine-phosphorylation-regulated kinase 2 (Homo sapiens) (UniProt Q92630); assay: Inhibition of DYRK2 (unknown origin) at 10 uM after 120 mins P33 radiolabeled kinase activity assay
T3 sequence (whole entry): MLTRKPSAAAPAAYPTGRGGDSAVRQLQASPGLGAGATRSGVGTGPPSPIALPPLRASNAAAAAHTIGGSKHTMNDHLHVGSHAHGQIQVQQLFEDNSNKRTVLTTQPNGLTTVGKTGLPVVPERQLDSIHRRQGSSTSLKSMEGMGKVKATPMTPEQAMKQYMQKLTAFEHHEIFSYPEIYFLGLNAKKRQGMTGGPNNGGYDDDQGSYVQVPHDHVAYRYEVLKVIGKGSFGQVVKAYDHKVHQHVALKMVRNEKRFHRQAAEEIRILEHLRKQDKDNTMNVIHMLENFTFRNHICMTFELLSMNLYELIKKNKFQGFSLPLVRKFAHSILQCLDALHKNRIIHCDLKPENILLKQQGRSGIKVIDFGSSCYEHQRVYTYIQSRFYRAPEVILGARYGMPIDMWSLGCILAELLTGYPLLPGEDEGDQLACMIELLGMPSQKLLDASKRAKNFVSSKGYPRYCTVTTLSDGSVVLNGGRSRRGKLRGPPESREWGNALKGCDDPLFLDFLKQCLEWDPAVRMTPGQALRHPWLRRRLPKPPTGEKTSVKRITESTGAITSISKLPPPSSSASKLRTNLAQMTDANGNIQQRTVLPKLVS

[15] = target: SRSF protein kinase 1 (Homo sapiens) (UniProt Q96SB4); assay: Inhibition of SRPK1 (unknown origin) at 10 uM after 120 mins P33 radiolabeled kinase activity assay
SRSF protein kinase 1 (Homo sapiens), sequence (Q96SB4 whole entry): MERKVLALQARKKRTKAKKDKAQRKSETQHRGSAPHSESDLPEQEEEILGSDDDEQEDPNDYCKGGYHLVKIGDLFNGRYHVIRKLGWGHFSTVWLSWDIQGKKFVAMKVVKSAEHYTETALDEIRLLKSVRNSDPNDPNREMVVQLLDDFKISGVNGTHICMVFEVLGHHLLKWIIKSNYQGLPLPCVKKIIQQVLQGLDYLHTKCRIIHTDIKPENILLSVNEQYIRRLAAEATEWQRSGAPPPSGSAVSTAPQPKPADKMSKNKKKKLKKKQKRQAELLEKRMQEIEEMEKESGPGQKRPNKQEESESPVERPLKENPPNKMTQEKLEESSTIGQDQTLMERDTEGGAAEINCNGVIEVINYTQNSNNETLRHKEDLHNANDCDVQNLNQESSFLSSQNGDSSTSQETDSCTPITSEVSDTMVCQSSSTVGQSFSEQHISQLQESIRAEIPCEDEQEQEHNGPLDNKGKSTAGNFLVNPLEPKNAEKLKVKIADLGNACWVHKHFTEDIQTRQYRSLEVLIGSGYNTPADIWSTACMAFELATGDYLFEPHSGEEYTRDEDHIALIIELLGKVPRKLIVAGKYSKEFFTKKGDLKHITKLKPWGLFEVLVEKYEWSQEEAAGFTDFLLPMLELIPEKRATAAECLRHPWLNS

Calcium/calmodulin-dependent protein kinase type 1G (Homo sapiens), sequence (Q96NX5 whole entry): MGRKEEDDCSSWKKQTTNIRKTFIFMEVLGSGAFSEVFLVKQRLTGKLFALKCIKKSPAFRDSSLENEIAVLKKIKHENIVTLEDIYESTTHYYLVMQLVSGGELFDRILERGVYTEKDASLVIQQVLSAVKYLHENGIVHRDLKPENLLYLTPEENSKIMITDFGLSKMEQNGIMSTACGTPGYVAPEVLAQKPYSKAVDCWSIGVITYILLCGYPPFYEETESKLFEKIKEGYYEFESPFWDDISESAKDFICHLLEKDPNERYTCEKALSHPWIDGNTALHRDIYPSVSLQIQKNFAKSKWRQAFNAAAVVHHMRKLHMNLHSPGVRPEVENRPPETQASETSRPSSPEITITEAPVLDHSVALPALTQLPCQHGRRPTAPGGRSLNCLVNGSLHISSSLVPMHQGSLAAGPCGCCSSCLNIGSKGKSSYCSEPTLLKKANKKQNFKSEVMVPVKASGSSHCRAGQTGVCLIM
Protein-tyrosine kinase 6 (Homo sapiens), sequence (Q13882 whole entry, looked up): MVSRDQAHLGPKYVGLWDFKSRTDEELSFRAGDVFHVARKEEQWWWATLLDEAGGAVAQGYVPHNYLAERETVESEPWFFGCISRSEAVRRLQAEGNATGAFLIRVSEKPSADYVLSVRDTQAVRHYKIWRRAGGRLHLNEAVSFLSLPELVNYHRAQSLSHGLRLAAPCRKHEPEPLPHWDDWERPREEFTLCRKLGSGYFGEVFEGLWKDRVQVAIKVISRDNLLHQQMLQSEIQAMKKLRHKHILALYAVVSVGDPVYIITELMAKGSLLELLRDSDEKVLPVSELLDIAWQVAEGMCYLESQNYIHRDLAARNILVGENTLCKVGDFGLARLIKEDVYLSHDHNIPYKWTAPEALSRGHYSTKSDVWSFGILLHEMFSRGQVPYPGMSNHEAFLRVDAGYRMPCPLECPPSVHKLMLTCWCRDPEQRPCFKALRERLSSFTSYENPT
Serine/threonine-protein kinase N1 (Homo sapiens), sequence (Q16512 2-942 limits assumed): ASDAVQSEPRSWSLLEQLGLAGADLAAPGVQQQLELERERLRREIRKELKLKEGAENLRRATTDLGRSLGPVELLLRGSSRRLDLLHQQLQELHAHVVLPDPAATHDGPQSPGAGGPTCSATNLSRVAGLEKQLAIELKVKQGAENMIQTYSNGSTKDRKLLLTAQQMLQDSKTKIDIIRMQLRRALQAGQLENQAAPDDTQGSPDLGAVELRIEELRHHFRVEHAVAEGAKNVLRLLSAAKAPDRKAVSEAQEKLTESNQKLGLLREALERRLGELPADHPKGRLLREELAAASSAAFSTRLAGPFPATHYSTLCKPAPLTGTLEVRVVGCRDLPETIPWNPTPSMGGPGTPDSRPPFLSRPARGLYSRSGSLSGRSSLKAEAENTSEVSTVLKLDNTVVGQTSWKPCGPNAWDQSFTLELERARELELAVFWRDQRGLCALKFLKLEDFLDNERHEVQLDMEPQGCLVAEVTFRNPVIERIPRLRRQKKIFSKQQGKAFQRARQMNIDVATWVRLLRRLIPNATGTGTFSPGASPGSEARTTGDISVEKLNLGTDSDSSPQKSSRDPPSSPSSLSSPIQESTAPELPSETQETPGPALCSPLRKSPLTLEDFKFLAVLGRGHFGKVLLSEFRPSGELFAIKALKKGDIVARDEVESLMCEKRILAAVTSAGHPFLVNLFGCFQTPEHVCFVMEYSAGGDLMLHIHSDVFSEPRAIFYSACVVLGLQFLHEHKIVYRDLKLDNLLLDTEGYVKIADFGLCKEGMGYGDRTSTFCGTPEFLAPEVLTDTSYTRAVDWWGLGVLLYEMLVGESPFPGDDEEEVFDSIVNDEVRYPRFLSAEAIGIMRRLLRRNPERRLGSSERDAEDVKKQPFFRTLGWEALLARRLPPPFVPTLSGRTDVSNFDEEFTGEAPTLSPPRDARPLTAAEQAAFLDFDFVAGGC
Casein kinase I isoform gamma-1 (Homo sapiens), sequence (Q9HCP0 whole entry, looked up, canonical isoform): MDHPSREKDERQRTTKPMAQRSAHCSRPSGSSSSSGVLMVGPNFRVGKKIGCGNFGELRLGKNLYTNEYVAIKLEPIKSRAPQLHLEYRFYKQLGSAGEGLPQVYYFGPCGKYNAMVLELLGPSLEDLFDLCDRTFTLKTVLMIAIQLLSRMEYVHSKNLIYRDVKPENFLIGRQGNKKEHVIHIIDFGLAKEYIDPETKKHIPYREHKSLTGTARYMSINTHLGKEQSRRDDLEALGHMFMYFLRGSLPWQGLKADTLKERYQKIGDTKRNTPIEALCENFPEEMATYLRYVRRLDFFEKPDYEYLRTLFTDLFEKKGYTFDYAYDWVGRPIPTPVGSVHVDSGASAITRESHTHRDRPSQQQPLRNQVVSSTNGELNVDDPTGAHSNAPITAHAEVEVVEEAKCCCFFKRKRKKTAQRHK
Fibroblast growth factor receptor 4 (Homo sapiens), sequence (P22455 22-802 limits assumed): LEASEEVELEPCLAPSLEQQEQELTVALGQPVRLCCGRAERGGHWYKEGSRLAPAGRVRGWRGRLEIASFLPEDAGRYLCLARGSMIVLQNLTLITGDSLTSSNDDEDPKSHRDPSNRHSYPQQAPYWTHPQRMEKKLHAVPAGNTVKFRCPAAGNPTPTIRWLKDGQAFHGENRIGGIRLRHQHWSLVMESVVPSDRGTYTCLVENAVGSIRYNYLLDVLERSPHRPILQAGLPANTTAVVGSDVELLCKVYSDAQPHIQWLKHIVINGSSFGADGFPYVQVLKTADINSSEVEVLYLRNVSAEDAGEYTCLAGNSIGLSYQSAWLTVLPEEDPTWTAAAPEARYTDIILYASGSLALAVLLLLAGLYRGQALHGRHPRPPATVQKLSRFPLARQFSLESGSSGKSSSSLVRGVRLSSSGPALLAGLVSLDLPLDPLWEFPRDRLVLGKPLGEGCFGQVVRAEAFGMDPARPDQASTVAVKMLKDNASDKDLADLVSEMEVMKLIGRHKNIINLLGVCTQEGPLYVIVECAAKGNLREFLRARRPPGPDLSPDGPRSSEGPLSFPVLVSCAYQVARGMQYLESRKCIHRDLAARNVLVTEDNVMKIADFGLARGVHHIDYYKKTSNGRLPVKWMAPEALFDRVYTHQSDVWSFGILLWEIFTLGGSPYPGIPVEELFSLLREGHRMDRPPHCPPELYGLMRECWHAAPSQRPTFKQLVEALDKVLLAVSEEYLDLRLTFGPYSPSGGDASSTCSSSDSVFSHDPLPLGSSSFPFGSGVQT
Tyrosine-protein kinase Yes (Homo sapiens), sequence (P07947 2-543 limits assumed): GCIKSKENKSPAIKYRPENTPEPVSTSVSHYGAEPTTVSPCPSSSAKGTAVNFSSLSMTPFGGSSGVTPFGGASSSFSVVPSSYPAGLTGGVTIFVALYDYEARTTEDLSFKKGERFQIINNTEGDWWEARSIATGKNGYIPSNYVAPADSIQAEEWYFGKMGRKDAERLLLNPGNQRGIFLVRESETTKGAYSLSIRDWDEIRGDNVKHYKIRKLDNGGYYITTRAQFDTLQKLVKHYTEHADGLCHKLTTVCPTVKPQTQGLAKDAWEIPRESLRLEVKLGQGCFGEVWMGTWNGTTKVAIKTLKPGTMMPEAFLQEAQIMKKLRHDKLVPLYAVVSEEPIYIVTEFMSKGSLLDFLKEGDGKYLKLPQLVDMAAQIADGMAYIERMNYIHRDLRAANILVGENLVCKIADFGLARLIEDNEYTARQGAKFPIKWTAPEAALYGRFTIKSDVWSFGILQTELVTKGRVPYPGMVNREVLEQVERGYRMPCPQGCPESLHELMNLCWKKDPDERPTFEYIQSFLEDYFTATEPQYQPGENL
Fibroblast growth factor receptor 3 (Homo sapiens), sequence (P22607 23-806 limits assumed): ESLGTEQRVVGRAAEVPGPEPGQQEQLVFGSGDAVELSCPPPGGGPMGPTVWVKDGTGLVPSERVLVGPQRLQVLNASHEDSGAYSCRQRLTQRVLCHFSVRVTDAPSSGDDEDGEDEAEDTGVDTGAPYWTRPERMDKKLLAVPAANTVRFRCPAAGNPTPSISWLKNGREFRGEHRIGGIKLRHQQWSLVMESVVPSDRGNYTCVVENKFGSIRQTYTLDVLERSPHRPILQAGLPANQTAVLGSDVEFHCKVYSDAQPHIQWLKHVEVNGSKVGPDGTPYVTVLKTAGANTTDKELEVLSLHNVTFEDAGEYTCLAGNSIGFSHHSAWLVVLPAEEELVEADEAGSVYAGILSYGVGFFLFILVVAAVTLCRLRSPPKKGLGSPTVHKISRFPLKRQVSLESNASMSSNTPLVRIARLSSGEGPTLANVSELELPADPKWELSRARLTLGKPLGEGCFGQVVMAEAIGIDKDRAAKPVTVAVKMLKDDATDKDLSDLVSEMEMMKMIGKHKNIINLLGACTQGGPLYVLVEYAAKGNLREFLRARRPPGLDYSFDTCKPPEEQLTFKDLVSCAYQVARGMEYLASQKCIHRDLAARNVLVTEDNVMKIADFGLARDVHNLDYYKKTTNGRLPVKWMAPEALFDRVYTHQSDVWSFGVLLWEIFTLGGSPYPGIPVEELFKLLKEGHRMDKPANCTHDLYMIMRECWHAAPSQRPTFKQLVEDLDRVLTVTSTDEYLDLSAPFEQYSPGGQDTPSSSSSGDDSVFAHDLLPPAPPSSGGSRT

COCCNC(=O)c1ccc2c(c1)nc(-c1cnc(-c3ccc(Cl)cc3)[nH]1)n2CCOC
inhibition (Homo sapiens): 31.5%
inhibition [1]: 7.36%
inhibition [2]: 84.4%
inhibition [3]: 15.1%
inhibition [4]: 11.6%
inhibition [5]: 3.75%
inhibition [6]: 7.23%
inhibition [7]: -9.28%
inhibition [8]: 70.8%
inhibition [9]: 8.78%
inhibition [10]: 7.76%
inhibition [11]: 8.82%
inhibition [12]: 10.6%
inhibition [13]: 19.6%
inhibition [14]: 11.5%
inhibition [15]: 5.66%

CS(=O)(=O)c1cccc(Nc2nccc(-c3sc(N4CCOCC4)nc3-c3cccc(NS(=O)(=O)c4c(F)cccc4F)c3)n2)c1
inhibition (Homo sapiens): 9.1%
inhibition [1]: 22.4%
inhibition [2]: 100%
inhibition [3]: 96.8%
inhibition [5]: 47.3%
inhibition [6]: 35.1%
inhibition [7]: 97%
inhibition [8]: 99.9%
inhibition [9]: 51.2%
inhibition [10]: 6.72%
inhibition [11]: 66.6%
inhibition [12]: 5.55%
inhibition [13]: 68%
inhibition [14]: 37.4%
inhibition [15]: 18.5%

CC(C)(C)c1cc(NC(=O)Nc2ccc(Oc3ccncc3)cc2)no1
inhibition (Homo sapiens): 9.88%
inhibition [1]: 33.7%
inhibition [2]: 95.7%
inhibition [3]: 15.4%
inhibition [4]: 12.2%
inhibition [5]: 73.3%
inhibition [6]: 6.78%
inhibition [7]: 96.7%
inhibition [8]: 82%
inhibition [9]: 72.3%
inhibition [10]: 80.5%
inhibition [11]: 20.9%
inhibition [12]: 25.1%
inhibition [13]: 97.3%
inhibition [14]: 77.8%
inhibition [15]: 59.1%
